Measurements as given in patent publication US8388986B2, “Use of cationic surfactants in cosmetic preparations” (priority 2001, dated 2013).

Key:
Fungi = assay: preservative efficacy (Antimicrobial Effectiveness Testing USP 24th Edition) in cosmetic formulations; format: cell-based, Aspergillus niger ATCC 16404; conditions: 0.20 g of LAE
Experimental: (§1) This assay consists of the contamination of the protecting formulations with an inoculum mixture of 10^8 cfu/mL concentration, for each of the microorganisms, and the determination of the number of viable cells in the time. This inoculum mixture is composed of the following microorganisms:
(§2) The cosmetic composition to be analysed is divided into sterile containers with 50 g of product for each flask. Each container is inoculated with 0.5 mL of inoculum (10^8 cfu/mL). The target concentration is 10^6 cfu/mL, approximately. All the containers are kept at a temperature between 20-25° C. and are protected from light.
(§3) The level of the microbial contamination is checked at 0 hours, 7 days, 14 days and 28 days. The number of colonies is evaluated by dilution in buffer peptone with the appropriate neutraliser agent of the preservative. The culture media used for counting the microorganisms are: Soya triptone (35-37° C., 48 hours) for the determination of bacteria; Sabouraud agar with chloramphenicol for fungi and yeast (25° C., 3-5 days).
(§4) According to Antimicrobial Effectiveness Testing USP 24th Edition, 1999 (pp. 1809-1811), an antimicrobial preservative is considered to be effective in topically used products made with aqueous bases or vehicles, non-sterile nasal products and emulsions, including those applied to mucous membranes, if: • Not less than 2.0 logarithm reduction from the initial calculated bacteria's count is reached at 14 days and no increase from the 14 days' count at 28 days is detected; and • No increase from the initial calculated count of yeast and moulds is observed.

Yeast = assay: as above; format: cell-based, Candida albicans ATCC 10231; conditions: 0.20 g of LAE
Experimental: as §1, §2, §3, §4

[1] = Example 13, oil-in-water emulsion with non-ionic surfactants (sun protector, polysorbate 60), Initial
[2] = Example 14, oil-in-water emulsion with non-ionic surfactants (sun protector, cetyl dimethicone copolyol), 7 days
[3] = Example 14, oil-in-water emulsion with non-ionic surfactants (sun protector, cetyl dimethicone copolyol), 14 days
[4] = Example 14, oil-in-water emulsion with non-ionic surfactants (sun protector, cetyl dimethicone copolyol), Initial
[5] = Example 15, emulsion for hands care, 7 days
[6] = Example 15, emulsion for hands care, 14 days
[7] = Example 15, emulsion for hands care, Initial

## CCCCCCCCCCCC(=O)N[C@@H](CCCN=C(N)N)C(=O)OCC.Cl [LAE, ethyl ester of the lauramide of the arginine monohydrochloride]
Fungi; [1]
  viable count With LAE: 4.9 · 10^4 cfu/mL
Fungi; [2]
  viable count With LAE: 6.7 · 10^2 cfu/mL
Fungi; [3]
  viable count With LAE: <9.9 · 10^1 cfu/mL
Fungi; [4]
  viable count With LAE: 5.3 · 10^4 cfu/mL
Fungi; [5]
  viable count With LAE: 8.7 · 10^2 cfu/mL
Fungi; [6]
  viable count With LAE: <9.9 · 10^1 cfu/mL
Fungi; [7]
  viable count With LAE: 5.8 · 10^4 cfu/mL
Yeast; Example 1, oil-in-water emulsion with non-ionic surfactant, 7 days
  viable count With LAE: 9.5 · 10^2 cfu/mL
Yeast; Example 1, oil-in-water emulsion with non-ionic surfactant, 14 days
  viable count With LAE: 4.0 · 10^2 cfu/mL
Yeast; Example 1, oil-in-water emulsion with non-ionic surfactant, Initial
  viable count With LAE: 5.6 · 10^5 cfu/mL
Yeast; Example 2, oil-in-water emulsion with an ionic emulsifier, 7 days
  viable count With LAE: 1.0 · 10^2 cfu/mL
Yeast; Example 2, oil-in-water emulsion with an ionic emulsifier, 14 days
  viable count With LAE: 1.0 · 10^2 cfu/mL
Yeast; Example 2, oil-in-water emulsion with an ionic emulsifier, Initial
  viable count With LAE: 3.6 · 10^4 cfu/mL
Yeast; Example 3, water in oil emulsion with non-ionic emulsifiers, 7 days
  viable count With LAE: <9.9 · 10^1 cfu/mL
Yeast; Example 3, water in oil emulsion with non-ionic emulsifiers, 14 days
  viable count With LAE: <9.9 · 10^1 cfu/mL
Yeast; Example 3, water in oil emulsion with non-ionic emulsifiers, Initial
  viable count With LAE: 7.0 · 10^4 cfu/mL
Yeast; Example 4, aqueous solution with a surfactants' mixture (bath gels, disodium cocoamfoacetate), 7 days
  viable count With LAE: <9.9 · 10^1 cfu/mL
Yeast; Example 4, aqueous solution with a surfactants' mixture (bath gels, disodium cocoamfoacetate), 14 days
  viable count With LAE: <9.9 · 10^1 cfu/mL
Yeast; Example 4, aqueous solution with a surfactants' mixture (bath gels, disodium cocoamfoacetate), Initial
  viable count With LAE: 4.6 · 10^4 cfu/mL
Yeast; Example 5, aqueous solution with a surfactants' mixture (bath gels, disodium lauryl sulfosuccinate), 7 days
  viable count With LAE: <9.9 · 10^1 cfu/mL
Yeast; Example 5, aqueous solution with a surfactants' mixture (bath gels, disodium lauryl sulfosuccinate), 14 days
  viable count With LAE: <9.9 · 10^1 cfu/mL
Yeast; Example 5, aqueous solution with a surfactants' mixture (bath gels, disodium lauryl sulfosuccinate), Initial
  viable count With LAE: 3.6 · 10^4 cfu/mL
Yeast; Example 6, hydroalcoholic gel (after-shaving lotions), 7 days
  viable count With LAE: 1.6 · 10^2 cfu/mL
Yeast; Example 6, hydroalcoholic gel (after-shaving lotions), 14 days
  viable count With LAE: <9.9 · 10^1 cfu/mL
Yeast; Example 6, hydroalcoholic gel (after-shaving lotions), Initial
  viable count With LAE: 4.2 · 10^4 cfu/mL
Yeast; Example 7, facial tonic, 7 days
  viable count With LAE: 1.1 · 10^2 cfu/mL
Yeast; Example 7, facial tonic, 14 days
  viable count With LAE: <9.9 · 10^1 cfu/mL
Yeast; Example 7, facial tonic, Initial
  viable count With LAE: 1.2 · 10^4 cfu/mL
Yeast; Example 8, mask-up cleaner, 7 days
  viable count With LAE: 1.8 · 10^2 cfu/mL
Yeast; Example 8, mask-up cleaner, 14 days
  viable count With LAE: <9.9 · 10^1 cfu/mL
Yeast; Example 8, mask-up cleaner, Initial
  viable count With LAE: 7.2 · 10^4 cfu/mL
Yeast; Example 9, fluid oil-in-water emulsion with non-ionic surfactants (body oil), 7 days
  viable count With LAE: 2.3 · 10^2 cfu/mL
Yeast; Example 9, fluid oil-in-water emulsion with non-ionic surfactants (body oil), 14 days
  viable count With LAE: <9.9 · 10^1 cfu/mL
Yeast; Example 9, fluid oil-in-water emulsion with non-ionic surfactants (body oil), Initial
  viable count With LAE: 7.2 · 10^4 cfu/mL
Yeast; Example 10, toothpaste formulation, 7 days
  viable count With LAE: 1.2 · 10^2 cfu/mL
Yeast; Example 10, toothpaste formulation, 14 days
  viable count With LAE: <9.9 · 10^1 cfu/mL
Yeast; Example 10, toothpaste formulation, Initial
  viable count With LAE: 4.2 · 10^4 cfu/mL
Yeast; Example 11, aqueous solution with surfactants (shampoos), 7 days
  viable count With LAE: 1.2 · 10^2 cfu/mL
Yeast; Example 11, aqueous solution with surfactants (shampoos), 14 days
  viable count With LAE: <9.9 · 10^1 cfu/mL
Yeast; Example 11, aqueous solution with surfactants (shampoos), Initial
  viable count With LAE: 4.2 · 10^4 cfu/mL
Yeast; Example 12, oil-in-water emulsion with non-ionic surfactants (face cream), 7 days
  viable count With LAE: 9.2 · 10^2 cfu/mL
Yeast; Example 12, oil-in-water emulsion with non-ionic surfactants (face cream), 14 days
  viable count With LAE: <9.9 · 10^1 cfu/mL
Yeast; Example 12, oil-in-water emulsion with non-ionic surfactants (face cream), Initial
  viable count With LAE: 3.2 · 10^4 cfu/mL
Yeast; Example 13, oil-in-water emulsion with non-ionic surfactants (sun protector, polysorbate 60), 7 days
  viable count With LAE: 4.2 · 10^2 cfu/mL
Yeast; Example 13, oil-in-water emulsion with non-ionic surfactants (sun protector, polysorbate 60), 14 days
  viable count With LAE: <9.9 · 10^1 cfu/mL
Yeast; [1]
  viable count With LAE: 3.8 · 10^4 cfu/mL
Yeast; [2]
  viable count With LAE: 4.5 · 10^2 cfu/mL
Yeast; [3]
  viable count With LAE: <9.9 · 10^1 cfu/mL
Yeast; [4]
  viable count With LAE: 7.9 · 10^4 cfu/mL
Yeast; [5]
  viable count With LAE: 7.2 · 10^2 cfu/mL
Yeast; [6]
  viable count With LAE: <9.9 · 10^1 cfu/mL
Yeast; [7]
  viable count With LAE: 8.6 · 10^4 cfu/mL
